From patent US8871753B2, “Macrocyclic compounds and their use as kinase inhibitors” (Incyte Corporation, priority 2008, dated 2014)
Structures can show the parent of a compound that is named as a salt. Where two headings read alike, the source gives them in different places.

Tests used:
Assay type in all cases: biochemical
TYK2 = TYK2 (Homo sapiens, UniProt P29597); test: TYK2 kinase inhibition (Table A1)
[1] = target: T1, human JAK3 (a.a. 781-1124) (Homo sapiens, UniProt P52333); test: In vitro JAK kinase assay (HTRF, phosphorylation of a biotinylated peptide), JAK3
T1 construct: JAK3 (a.a. 781-1124); His tag (N); made in house; host or cells: insect cells (baculovirus)
T1 sequence (P52333 781-1124): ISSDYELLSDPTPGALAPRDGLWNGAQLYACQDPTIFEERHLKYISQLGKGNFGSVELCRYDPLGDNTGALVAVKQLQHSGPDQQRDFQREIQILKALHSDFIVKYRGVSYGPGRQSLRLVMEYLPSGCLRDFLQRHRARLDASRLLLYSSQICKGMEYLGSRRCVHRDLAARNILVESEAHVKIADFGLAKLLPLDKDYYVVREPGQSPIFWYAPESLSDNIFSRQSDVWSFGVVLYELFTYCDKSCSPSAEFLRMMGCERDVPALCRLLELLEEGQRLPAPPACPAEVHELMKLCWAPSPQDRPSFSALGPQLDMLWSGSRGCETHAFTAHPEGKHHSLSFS
Summary of the method: (§1)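 Kinase activity was measured as phosphorylation of a biotinylated peptide, with ATP at 90 μM for JAK1, 30 μM for JAK2 and 3 μM for JAK3. Reactions ran 1 hr at room temperature, were stopped with EDTA plus SA-APC and Eu-Py20, and were read by HTRF after 40 minutes of antibody binding.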

[2] = target: T2, human JAK1 (a.a. 837-1142) (Homo sapiens, UniProt P23458); test: In vitro JAK kinase assay (HTRF, phosphorylation of a biotinylated peptide), JAK1; details: read-out: JAK1 IC50
T2 construct: human JAK1 (a.a. 837-1142); His tag (N); made in house; host or cells: insect cells (baculovirus)
T2 sequence (P23458 849-1154): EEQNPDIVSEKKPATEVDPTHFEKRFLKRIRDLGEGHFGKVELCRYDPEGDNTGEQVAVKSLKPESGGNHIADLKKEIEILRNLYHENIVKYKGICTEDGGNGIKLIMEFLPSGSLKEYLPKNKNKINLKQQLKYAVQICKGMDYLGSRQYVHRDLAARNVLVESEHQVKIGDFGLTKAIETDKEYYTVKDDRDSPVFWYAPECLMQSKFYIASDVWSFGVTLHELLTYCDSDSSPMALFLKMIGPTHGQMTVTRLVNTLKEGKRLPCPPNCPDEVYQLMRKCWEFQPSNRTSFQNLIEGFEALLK
Summary of the method: as §1

[3] = target: T3, human JAK2 (a.a. 828-1132) (Homo sapiens, UniProt O60674); test: In vitro JAK kinase assay (HTRF, phosphorylation of a biotinylated peptide), JAK2
T3 construct: JAK2 (a.a. 828-1132); His tag (N); made in house; host or cells: insect cells (baculovirus)
T3 sequence (O60674 828-1132): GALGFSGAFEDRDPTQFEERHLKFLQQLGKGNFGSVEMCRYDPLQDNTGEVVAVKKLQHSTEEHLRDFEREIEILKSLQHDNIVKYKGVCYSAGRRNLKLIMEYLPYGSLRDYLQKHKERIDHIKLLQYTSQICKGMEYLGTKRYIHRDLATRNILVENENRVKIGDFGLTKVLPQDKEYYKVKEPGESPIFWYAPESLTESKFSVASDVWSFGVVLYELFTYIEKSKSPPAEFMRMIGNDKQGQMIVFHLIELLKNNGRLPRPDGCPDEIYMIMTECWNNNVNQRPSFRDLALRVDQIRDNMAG
Summary of the method: as §1

[4] = target: T4, Recombinant Human Anaplastic Lymphoma Kinase (Homo sapiens, UniProt Q9UM73); test: ALK HTRF kinase assay; details: for IC50: Table B1, cells without percent sign
T4 construct: purchased Invitrogen, Carlsbad, Calif
T4 sequence (Q9UM73 19-1620): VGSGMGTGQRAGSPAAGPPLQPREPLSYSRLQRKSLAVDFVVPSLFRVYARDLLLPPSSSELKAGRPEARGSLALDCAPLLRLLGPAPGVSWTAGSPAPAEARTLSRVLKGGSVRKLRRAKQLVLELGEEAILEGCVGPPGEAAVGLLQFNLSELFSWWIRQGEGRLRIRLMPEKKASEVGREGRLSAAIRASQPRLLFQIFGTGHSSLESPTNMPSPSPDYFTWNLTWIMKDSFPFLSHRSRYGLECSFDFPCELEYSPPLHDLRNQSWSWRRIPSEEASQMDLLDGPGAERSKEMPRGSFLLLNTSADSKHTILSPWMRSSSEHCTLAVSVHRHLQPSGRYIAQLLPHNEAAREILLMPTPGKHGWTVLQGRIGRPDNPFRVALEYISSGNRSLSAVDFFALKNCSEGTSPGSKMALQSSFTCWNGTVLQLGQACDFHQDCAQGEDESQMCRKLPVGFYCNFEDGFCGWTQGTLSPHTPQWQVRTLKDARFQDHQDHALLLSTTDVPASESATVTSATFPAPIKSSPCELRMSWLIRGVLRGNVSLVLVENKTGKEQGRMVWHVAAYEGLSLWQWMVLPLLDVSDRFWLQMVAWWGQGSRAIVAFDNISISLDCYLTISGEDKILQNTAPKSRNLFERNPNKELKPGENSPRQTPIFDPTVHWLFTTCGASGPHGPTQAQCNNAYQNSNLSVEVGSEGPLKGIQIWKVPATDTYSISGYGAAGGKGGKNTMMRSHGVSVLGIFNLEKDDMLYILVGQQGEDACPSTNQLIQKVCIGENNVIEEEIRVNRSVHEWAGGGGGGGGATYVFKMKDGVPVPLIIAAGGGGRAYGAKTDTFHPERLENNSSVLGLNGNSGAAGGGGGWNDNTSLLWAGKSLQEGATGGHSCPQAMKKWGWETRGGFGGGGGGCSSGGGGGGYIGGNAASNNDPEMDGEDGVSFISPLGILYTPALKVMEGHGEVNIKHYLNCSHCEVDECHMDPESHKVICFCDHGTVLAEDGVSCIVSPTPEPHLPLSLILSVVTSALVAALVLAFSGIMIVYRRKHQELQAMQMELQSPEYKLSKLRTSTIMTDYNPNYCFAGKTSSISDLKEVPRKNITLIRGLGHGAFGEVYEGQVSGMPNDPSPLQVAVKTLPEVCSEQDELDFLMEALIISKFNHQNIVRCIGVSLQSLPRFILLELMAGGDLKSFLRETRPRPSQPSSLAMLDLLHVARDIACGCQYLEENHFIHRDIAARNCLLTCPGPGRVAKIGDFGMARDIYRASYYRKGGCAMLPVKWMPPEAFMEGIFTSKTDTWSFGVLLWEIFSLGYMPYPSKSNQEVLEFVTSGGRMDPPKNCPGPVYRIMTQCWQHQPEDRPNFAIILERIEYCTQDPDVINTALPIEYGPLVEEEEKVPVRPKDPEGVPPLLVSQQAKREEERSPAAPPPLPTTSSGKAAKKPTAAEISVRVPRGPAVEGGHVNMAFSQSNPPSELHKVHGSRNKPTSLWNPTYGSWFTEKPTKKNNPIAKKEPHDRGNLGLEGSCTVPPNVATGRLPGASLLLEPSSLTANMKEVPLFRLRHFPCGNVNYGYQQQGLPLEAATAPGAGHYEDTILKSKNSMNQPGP
Summary of the method: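 TR-FRET read-out (Eu anti-pTyr antibody + streptavidin-APC) of biotin-peptide phosphorylation by recombinant human enzyme; IC50 by sigmoidal fit with top/bottom baselines and Hill slope.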

[5] = percentage inhibition of the example compound at a concentration of 500 nM or 1 mM (not specified which)
[6] = method AA1 (3 μM ATP) or AA2 (1000 μM ATP), not stated per value
[7] = method AA1 (90 μM ATP) or AA2 (1000 μM ATP), not stated per value
[8] = method AA1 (30 μM ATP) or AA2 (1000 μM ATP), not stated per value
[9] = compound at 500 nM or 1 mM, 90 μM ATP
[10] = compound at a concentration of 500 nM or 1 mM (not specified), cells shown as percentage

TYK2, sequence (P29597 whole entry): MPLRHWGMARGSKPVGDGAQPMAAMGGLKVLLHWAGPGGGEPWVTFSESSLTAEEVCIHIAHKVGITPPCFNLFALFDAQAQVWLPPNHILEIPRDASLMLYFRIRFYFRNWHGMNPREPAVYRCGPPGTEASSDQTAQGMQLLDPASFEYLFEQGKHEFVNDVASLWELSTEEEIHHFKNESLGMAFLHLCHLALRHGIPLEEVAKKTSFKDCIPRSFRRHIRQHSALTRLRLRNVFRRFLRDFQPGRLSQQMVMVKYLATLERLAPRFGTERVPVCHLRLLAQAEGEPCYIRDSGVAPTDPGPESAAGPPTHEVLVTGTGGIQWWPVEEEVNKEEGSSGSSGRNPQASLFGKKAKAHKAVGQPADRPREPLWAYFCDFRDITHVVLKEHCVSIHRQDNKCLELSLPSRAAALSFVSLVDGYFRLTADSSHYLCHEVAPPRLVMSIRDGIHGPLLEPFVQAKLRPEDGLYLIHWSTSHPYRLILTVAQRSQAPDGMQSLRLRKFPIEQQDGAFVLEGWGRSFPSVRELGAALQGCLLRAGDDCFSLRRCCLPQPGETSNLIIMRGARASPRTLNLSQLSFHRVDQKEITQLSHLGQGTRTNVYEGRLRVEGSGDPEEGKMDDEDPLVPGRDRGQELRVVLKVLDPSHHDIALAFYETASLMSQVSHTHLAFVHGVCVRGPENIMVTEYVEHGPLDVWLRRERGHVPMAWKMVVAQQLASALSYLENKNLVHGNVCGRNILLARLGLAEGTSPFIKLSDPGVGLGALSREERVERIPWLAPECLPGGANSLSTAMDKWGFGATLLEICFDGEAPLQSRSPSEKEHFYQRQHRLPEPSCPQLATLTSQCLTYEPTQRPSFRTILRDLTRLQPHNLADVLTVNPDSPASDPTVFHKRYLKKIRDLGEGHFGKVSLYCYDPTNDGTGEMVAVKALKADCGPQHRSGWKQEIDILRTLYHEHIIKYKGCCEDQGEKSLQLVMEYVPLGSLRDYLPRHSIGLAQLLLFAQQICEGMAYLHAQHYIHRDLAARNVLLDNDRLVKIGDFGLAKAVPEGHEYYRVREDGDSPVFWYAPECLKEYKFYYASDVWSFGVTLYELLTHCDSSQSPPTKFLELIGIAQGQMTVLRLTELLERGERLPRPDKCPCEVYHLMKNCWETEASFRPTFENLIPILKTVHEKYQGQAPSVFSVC

Row | Structure (SMILES) | IC50 (TYK2; Table B1) [µM] | IC50 ([1]; Table B1) [µM] | IC50 ([2]; Table B1) [µM] | IC50 ([3]; Table B1) [µM] | ALK % of inhibition at a concentration of 500 nM or 1 mM [4, 5] [%] | IC50 [4] [µM] | IC50 (TYK2) [µM] | IC50 [1, 6] [µM] | IC50 [2, 7] [µM] | IC50 [3, 8] [µM] | ALK % of inhibition at a concentration of 500 nM or 1 mM [4, 9] [%] | ALK % of inhibition at a concentration of 500 nM or 1 mM [4, 10] [%]
1 | N#CNC(=O)Nc1ccc2cc1CCc1cccc(c1)Nc1ncc(Cl)c(n1)N2 [Example B323, N-[6-chloro-2,4,8,22-tetraazatetracyclo[14.3.1.1(3,7).1(9,13)]docosa-1(20),3(22),4,6,9(21),10,12,16,18-nonaen-12-yl]-N′-cyanourea trifluoroacetate] | 0.00089 | 0.0021 | 0.012 | 0.014 | 20 | – | – | – | – | – | – | –
2 | O=C(Nc1cc2cc(c1)Nc1nc(ncc1Cl)Nc1cccc(c1)CC2)c1ccno1 [Example B206, N-[6-Chloro-2,4,8,22-tetraazatetracyclo[14.3.1.1(3,7).1(9,13)]docosa-1(20),3(22),4,6,9(21),10,12,16,18-nonaen-11-yl]isoxazole-5-carboxamide trifluoroacetate] | 0.046 | 0.041 | 0.016 | 0.015 | – | > 10 | – | – | – | – | – | –
3 | O=C(Nc1ccc2cc1CCc1cccc(c1)Nc1ncc(Cl)c(n1)N2)C1CCN(C(=O)c2ccccc2)CC1 [Example A30, 1-Benzoyl-N-[6-chloro-2,4,8,22-tetraazatetracyclo[14.3.1.1(3,7).1(9,13)]docosa-1(20),3(22),4,6,9(21),10,12,16,18-nonaen-12-yl]piperidine-4-carboxamide trifluoroacetate] | – | – | – | – | – | – | 0.084 | 0.11 | 0.028 | 0.045 | 34 | –
4 | O=C(Nc1ccc2cc1CCc1cccc(c1)Nc1ncc(Cl)c(n1)N2)N1CCN(c2ccccn2)CC1 [Example B290, N-[6-Chloro-2,4,8,22-tetraazatetracyclo[14.3.1.1(3,7).1(9,13)]docosa-1(20),3(22),4,6,9(21),10,12,16,18-nonaen-12-yl]-4-pyridin-2-ylpiperazine-1-carboxamide bis(trifluoroacetate)] | 0.059 | > 0.2 | 0.082 | 0.089 | – | – | – | – | – | – | – | 50
5 | CC(C)(C)OC(=O)N1CC[C@H](NC(=O)Nc2ccc3cc2CCc2cccc(c2)Nc2ncc(Cl)c(n2)N3)C1 [Example B166, tert-Butyl (3S)-3-[({[6-chloro-2,4,8,22-tetraazatetracyclo[14.3.1.1(3,7).1(9,13)]docosa-1(20),3(22),4,6,9(21),10,12,16,18-nonaen-12-yl]amino}carbonyl)amino]pyrrolidine-1-carboxylate] | 0.017 | 0.039 | 0.0036 | 0.0074 | – | – | – | – | – | – | – | 15
6 | O=C(Nc1ccc2cc1CCc1cccc(c1)Nc1ncc(Cl)c(n1)N2)N[C@H]1CCN(C(=O)c2ccccn2)C1 [Example B233, N-[6-Chloro-2,4,8,22-tetraazatetracyclo[14.3.1.1(3,7).1(9,13)]docosa-1(20),3(22),4,6,9(21),10,12,16,18-nonaen-12-yl]-N′-[(3S)-1-(pyridin-2-ylcarbonyl)pyrrolidin-3-yl]urea bis(trifluoroacetate)] | 0.024 | 0.102 | 0.007 | 0.011 | – | – | – | – | – | – | – | 5.8
7 | O=S(=O)(Nc1ccc2cc1CCc1cccc(c1)Nc1ncc(Cl)c(n1)N2)c1ccc(C(F)(F)F)cc1 [Example B162, N-[6-Chloro-2,4,8,22-tetraazatetracyclo[14.3.1.1(3,7).1(9,13)]docosa-1(20), 3(22),4,6,9(21),10,12,16,18-nonaen-12-yl]-4-(trifluoromethyl)benzenesulfonamide trifluoroacetate] | 0.0043 | 0.026 | 0.0017 | 0.0027 | – | – | – | – | – | – | – | 16
8 | O=C(Nc1ccc2cc1CCc1cccc(c1)Nc1ncc(Cl)c(n1)N2)[C@@H]1CCCN1C(=O)Nc1ccccc1 [Example A69, (2S)—N(2)-[6-Chloro-2,4,8,22-tetraazatetracyclo[14.3.1.1(3,7).1(9,13)]docosa-1(20),3(22),4,6,9(21),10,12,16,18-nonaen-12-yl]-N(1)-phenylpyrrolidine-1,2-dicarboxamide trifluoroacetate] | – | – | – | – | – | – | 0.039 | 0.016 | 0.041 | 0.0077 | 27 | –
9 | O=C(Nc1ccc2cc1CCc1cncc(c1)Nc1ncc(Cl)c(n1)N2)N1CCN(S(=O)(=O)c2ccccc2)CC1 [Example B319, N-[6-Chloro-2,4,8,18,22-pentaazatetracyclo[14.3.1.1(3,7).1(9,13)]docosa-1(20),3(22),4,6,9(21),10,12,16,18-nonaen-12-yl]-4-(phenylsulfonyl)piperazine-1-carboxamide bis(trifluoroacetate)] | 0.288 | > 0.4 | 0.042 | > 0.4 | 58 | – | – | – | – | – | – | –
10 | O=C(Nc1ccc2cc1CCc1cccc(c1)Nc1ncc(Cl)c(n1)N2)c1nccs1 [Example B52, N-[6-Chloro-2,4,8,22-tetraazatetracyclo[14.3.1.1(3,7).1(9,13)]docosa-1(20), 3(22),4,6,9(21),10,12,16,18-nonaen-12-yl]-1,3-thiazole-2-carboxamide trifluoroacetate] | 0.0063 | 0.017 | 0.0037 | 0.0018 | – | 0.91 | – | – | – | – | – | –
11 | COc1cccc(NC(=O)N2CCC(CC(=O)Nc3ccc4cc3CCc3cncc(c3)Nc3ncc(Cl)c(n3)N4)CC2)c1 [Example A153, 4-(2-{[6-chloro-2,4,8,18,22-pentaazatetracyclo[14.3.1.1(3,7).1(9,13)]docosa-1(20),3(22),4,6,9(21),10,12,16,18-nonaen-12-yl]amino}-2-oxoethyl)-N-(3-methoxyphenyl)piperidine-1-carboxamide bis(trifluoroacetate)] | – | – | – | – | – | – | 0.0057 | > 0.1 | 0.0005 | 0.0011 | 52 | –
12 | O=C(Nc1ccc2cc1CCc1cccc(c1)Nc1ncc(Cl)c(n1)N2)N[C@H]1CCN(C(=O)c2cccnc2)C1 [Example B171, N-[6-Chloro-2,4,8,22-tetraazatetracyclo[14.3.1.1(3,7).1(9,13)]docosa-1(20),3(22),4,6,9(21),10,12,16,18-nonaen-12-yl]-N′-[(3S)-1-(pyridin-3-ylcarbonyl)pyrrolidin-3-yl]urea bis(trifluoroacetate)] | 0.03 | 0.051 | 0.0028 | 0.012 | – | – | – | – | – | – | – | 15
13 | O=C(Nc1nc[nH]n1)Nc1ccc2cc1CCc1cccc(c1)Nc1ncc(Cl)c(n1)N2 [Example B244, N-[6-Chloro-2,4,8,22-tetraazatetracyclo[14.3.1.1(3,7).1(9,13)]docosa-1(20),3(22),4,6,9(21),10,12,16,18-nonaen-12-yl]-N′-1H-1,2,4-triazol-3-ylurea trifluoroacetate] | 0.0016 | 0.0026 | 0.0092 | 0.019 | – | – | – | – | – | – | – | 63
14 | CN(C)C(=O)N1CCC(CC(=O)Nc2ccc3cc2CCc2cncc(c2)Nc2ncc(Cl)c(n2)N3)CC1 [Example A95, 4-(2-{[6-Chloro-2,4,8,18,22-pentaazatetracyclo[14.3.1.1(3,7).1(9,13)]docosa-1(20),3(22),4,6,9(21),10,12,16,18-nonaen-12-yl]amino}-2-oxoethyl)-N,N-dimethylpiperidine-1-carboxamide bis(trifluoroacetate)] | – | – | – | – | – | – | 0.009 | 0.16 | 0.0091 | 0.023 | 18 | –
15 | O=C(Nc1ccc2cc1CCc1cccc(c1)Nc1ncc(Cl)c(n1)N2)c1ccc(C(F)(F)F)cc1 [Example B75, N-[6-Chloro-2,4,8,22-tetraazatetracyclo[14.3.1.1(3,7).1(9,13)]docosa-1(20), 3(22),4,6,9(21),10,12,16,18-nonaen-12-yl]-4-(trifluoromethyl)benzamide trifluoroacetate] | 0.03 | 0.08 | 0.0047 | 0.03 | – | – | – | – | – | – | – | 17
16 | O=C(NCCN1CCOCC1)Nc1ccc2cc1CCc1cccc(c1)Nc1ncc(Cl)c(n1)N2 [Example B254, N-[6-Chloro-2,4,8,22-tetraazatetracyclo[14.3.1.1(3,7).1(9,13)]docosa-1(20),3(22),4,6,9(21),10,12,16,18-nonaen-12-yl]-N′-(2-morpholin-4-ylethyl)urea bis(trifluoroacetate)] | 0.0082 | 0.026 | 0.002 | 0.0024 | – | – | – | – | – | – | – | 18
